Results from US7790752B2, “Indol-3-yl-carbonyl-azaspiro derivatives” (Hoffmann-La Roche Inc., priority 2005, dated 2010).

Each compound was assayed against T1, human V1a receptor (Homo sapiens, UniProt P37288) (assay: human V1a receptor binding (3H-Vasopressin SPA, HEK293 membranes)). Conditions: displacement of 3H-Vasopressin; membranes of HEK293 cells transiently transfected with human V1a receptor; Ki from IC50 by Cheng-Prussoff equation.
T1 construct: expressed in transfected cells; host or cells: HEK293 cells, transiently transfected; membrane preparation
T1 sequence (P37288 whole entry): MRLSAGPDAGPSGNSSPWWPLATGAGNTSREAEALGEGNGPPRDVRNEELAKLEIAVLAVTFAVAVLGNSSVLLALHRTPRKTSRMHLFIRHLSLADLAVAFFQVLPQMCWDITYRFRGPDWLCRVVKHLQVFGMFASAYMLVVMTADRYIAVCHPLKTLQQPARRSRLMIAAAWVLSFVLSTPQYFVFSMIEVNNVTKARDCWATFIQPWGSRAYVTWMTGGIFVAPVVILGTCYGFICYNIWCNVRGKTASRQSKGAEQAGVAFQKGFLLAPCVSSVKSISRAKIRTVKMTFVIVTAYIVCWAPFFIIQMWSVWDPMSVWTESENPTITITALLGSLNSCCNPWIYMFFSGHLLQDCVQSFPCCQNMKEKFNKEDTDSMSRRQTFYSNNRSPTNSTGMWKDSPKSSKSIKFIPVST
Experimental: The human V1a receptor was cloned by RT-PCR from total human liver RNA. The coding sequence was subcloned in an expression vector after sequencing to confirm the identity of the amplified sequence. […] Cell membranes were prepared from HEK293 cells transiently transfected with the expression vector and grown in 20 liter fermenters with the following protocol.
50 g of cells are resuspended in 30 ml freshly prepared ice cold Lysis buffer (50 mM HEPES, 1 mM EDTA, 10 mM MgCl2 adjusted to pH=7.4+complete cocktail of protease inhibitor (Roche Diagnostics)). Homogenized with Polytron for 1 min and sonicated on ice for 2×2 minutes at 80% intensity (Vibracell sonicator). The preparation is centrifuged 20 min at 500 g at 4° C., the pellet is discarded and the supernatant centrifuged 1 hour at 43,000 g at 4° C. (19,000 rpm). The pellet is resuspended in 12.5 ml Lysis buffer+12.5 ml Sucrose 20% and homogenized using a Polytron for 1-2 min. The protein concentration is determined by the Bradford method, and aliquots are stored at −80° C. until use. For binding studies 60 mg Yttrium silicate SPA beads (Amersham) are mixed with an aliquot of membrane in binding buffer (50 mM Tris, 120 mM NaCl, 5 mM KCl, 2 mM CaCl2, 10 mM MgCl2) for 15 minutes with mixing. 50 ul of bead/membrane mixture is then added to each well of a 96 well plate, followed by 50 ul of 4 nM 3H-Vasopressin (American Radiolabeled Chemicals). For total binding measurement 100 ul of binding buffer are added to the respective wells, for non-specific binding 100 ul of […] cold vasopressin and for compound testing 100 ul of a serial dilution of each compound in 2% DMSO. The plate is incubated 1 h at room temperature, centrifuged 1 min at 1000 g and counted on a Packard Top-Count. Non-specific binding counts are subtracted from each well, and data is normalized to the maximum specific binding set at 100%. To calculate an IC 50 the curve is fitted using a non-linear regression model (XLfit), and the Ki is calculated using the Cheng-Prussoff equation.
Work on Cc1c(C(=O)N2CCC3(CC2)C(=O)N(C)CN3c2ccccc2)c2ccccc2n1Cc1ccccc1 [Example 1, 8-[(1-Benzyl-2-methyl-1H-indol-3-yl)carbonyl]-3-methyl-1-phenyl-1,3,8-triazaspiro[4.5]decan-4-one] yielded a Ki of 368 nM. With Cc1c(C(=O)N2CCC3(CC2)C(=O)NCN3c2ccccc2)c2ccccc2n1Cc1ccccc1 [Example 2, 8-(1-Benzyl-2-methyl-1H-indole-3-carbonyl)-1-phenyl-1,3,8-triaza-spiro[4.5]decan-4-one] the Ki was 367 nM. Work on CN(C)CCn1cc(C(=O)N2CCC3(CC2)C(=O)N(C)CN3c2ccccc2)c2ccc(Cl)cc21 [Example 7, 8-({6-Chloro-1-[2-(dimethylamino)ethyl]-1H-indol-3-yl}carbonyl)-3-methyl-1-phenyl-1,3,8-triazaspiro[4.5]decan-4-one] yielded a Ki of 156 nM. In the case of CNC(=O)Cn1cc(C(=O)N2CCC3(CC2)C(=O)N(C)CN3c2ccccc2)c2ccc(Cl)cc21 [Example 8, 2-{6-Chloro-3-[(3-methyl-4-oxo-1-phenyl-1,3,8-triazaspiro[4.5]dec-8-yl)carbonyl]-1H-indol-1-yl}-N-methylacetamide], the Ki is reported as 37 nM. Compound CN1CN(c2ccccc2)C2(CCN(C(=O)c3cn(Cc4cc(F)cc(F)c4)c4cc(Cl)ccc34)CC2)C1=O [Example 9, 8-{[6-Chloro-1-(3,5-difluorobenzyl)-1H-indol-3-yl]carbonyl}-3-methyl-1-phenyl-1,3,8-triazaspiro[4.5]decan-4-one] has a Ki of 21 nM. For CN(C)C(=O)Cn1cc(C(=O)N2CCC3(CC2)C(=O)N(C)CN3c2ccccc2)c2ccc(Cl)cc21 [Example 10, 2-{6-Chloro-3-[(3-methyl-4-oxo-1-phenyl-1,3,8-triazaspiro[4.5]dec-8-yl)carbonyl]-1H-indol-1-yl}-N,N-dimethylacetamide], the Ki was 14 nM. For CN1CN(c2ccccc2)C2(CCN(C(=O)c3cn(Cc4ccccc4)c4cc(Cl)ccc34)CC2)C1=O [Example 11, 8-[(1-Benzyl-6-chloro-1H-indol-3-yl)carbonyl]-3-methyl-1-phenyl-1,3,8-triazaspiro[4.5]decan-4-one], the Ki was 45 nM. For CN1CN(c2ccccc2)C2(CCN(C(=O)c3cn(Cc4cccc(Cl)c4F)c4cc(Cl)ccc34)CC2)C1=O [Example 13, 8-{[6-Chloro-1-(3-chloro-2-fluorobenzyl)-1H-indol-3-yl]carbonyl}-3-methyl-1-phenyl-1,3,8-triazaspiro[4.5]decan-4-one], the Ki was 73 nM. With CN(C)CCNC(=O)Cn1cc(C(=O)N2CCC3(CC2)C(=O)N(C)CN3c2ccccc2)c2ccc(Cl)cc21 [Example 14, 2-{6-Chloro-3-[(3-methyl-4-oxo-1-phenyl-1,3,8-triazaspiro[4.5]dec-8-yl)carbonyl]-1H-indol-1-yl}-N-[2-(dimethylamino)ethyl]acetamide] the Ki was 184 nM. Cc1c(C(=O)N2CCC3(CC2)OCCO3)c2ccccc2n1Cc1ccccc1 [Example 15, (1-Benzyl-2-methyl-1H-indol-3-yl)-(1,4-dioxa-8-aza-spiro[4.5]dec-8-yl)-methanone] showed a Ki of 424 nM. With O=C(c1c[nH]c2cc(Cl)ccc12)N1CCC2(CC1)OCCO2 [Example 16, 8-[(6-Chloro-1H-indol-3-yl)carbonyl]-1,4-dioxa-8-azaspiro[4.5]decane] the Ki was 284 nM.
